The values that follow come from patent publication US8980919B2, “Combination of a carbostyril and carnitine” (Otsuka Pharmaceutical Co., Ltd., priority 2008, dated 2015).

The assay has as its system chronic cerebral ischemia model rats. The experiment in a line: Immunohistological evaluation of brain in chronic cerebral ischemia model rats (ligation of both carotid arteries). Format: in vivo, rat. To be noted: for number of GST-pi positive oligodendrocyte in the callosum: after LBCCA, L-carnitine 600 mg/kg/day, cilostazol 50 mg/kg/day, FIG. 2; for number of GST-pi positive oligodendrocyte in the callosum / 8-OHdG positive cell (cell dysfunction by peroxidation): vs vehicle; for 8-OHdG positive cell (cell dysfunction by peroxidation): day 7 to day 28 after LBCCA, FIG. 3; for 8-OHdG positive cell (cell dysfunction by peroxidation) / number of ss-DNA positive cells (marker of apoptosis) / HNE staining positive cells (peroxidative metabolism): P<0.01; for number of ss-DNA positive cells (marker of apoptosis) / HNE staining positive cells (peroxidative metabolism): vs vehicle group; for number of ss-DNA positive cells (marker of apoptosis): FIG. 5; for HNE staining positive cells (peroxidative metabolism): FIG. 4. How it is done: The cerebroprotective action of cilostazol for inflammatory reaction due to oxidative stress and glial cell was studied using chronic cerebral ischemia model rats as cerebrovascular dementia model animals. Using Wister rats (male, aged 7-8 weeks, body weights of 150-200 g), chronic cerebral ischemia model rats are prepared according to the method of […] et al. (Acta Neuropathol (Berl). 87, 484-492, 1993), i.e. by double-ligating both […] of the rats. As a physiological evaluation, body temperature and body fluid of the rats before/after the preparation are measured, and the cerebral blood flow thereof is analyzed with a Doppler device. To the rats of each administration group of vehicle, L-carnitine, cilostazol, and L-carnitine/cilostazol combination, each defined administration is done every day by natural ingestion from the day when the preparation of ischemia was completed to the final day for the experimental evaluation. […] After brain parenchyma of the rats is sliced in 20 μm, HE and KB stainings and several immunostainings are carried out. The dosage of each trial is 600 mg/kg/day for L-carnitine and 50 mg/kg/day for cilostazol. Regarding glial cell, the astrocyte is evaluated with an antibody for GFAP, the microglia is evaluated with an antibody for Iba-1, and the oligodendrocyte is evaluated with an antibody for glutathione S-transferase p^+ (GST-pi). And, the oxidative stress is evaluated with an antibody for anti 4-hydroxy-2-nonenal (HNE).

With `C[N+](C)(C)C[C@H](O)CC(=O)[O-]` [carnitine, L-carnitine], the “number of GST-pi positive oligodendrocyte in the callosum” value is “increased more than that of the vehicle group”, the “8-OHdG positive cell (cell dysfunction by peroxidation)” value is reported as “significantly decreased” and the “HNE staining positive cells (peroxidative metabolism)” value is on record as “tended to significantly decrease compared with the vehicle group”. Further, under “day 14”, the “number of ss-DNA positive cells (marker of apoptosis)” value is given as “significantly decreased compared with the vehicle group”.
For the molecule `O=C1CCc2cc(OCCCCc3nnnn3C3CCCCC3)ccc2N1` [cilostazol, 6-[4-(1-cyclohexyl-1H-tetrazol-5-yl)butoxy]-3,4-dihydrocarbostyril], the “number of GST-pi positive oligodendrocyte in the callosum” value is listed as “increased more than that of the vehicle group”, the “8-OHdG positive cell (cell dysfunction by peroxidation)” value is given as “significantly decreased” and the “HNE staining positive cells (peroxidative metabolism)” value is “tended to significantly decrease compared with the vehicle group”. For the same molecule, the “number of ss-DNA positive cells (marker of apoptosis)” value (days 14, 21 and 28) is “significantly decreased compared with the vehicle group”.
